The source of these data is patent US20220249590A1, “EFFICACY OF GARLIC THERAPY IN CONTROLLING INFLAMMATORY CYTOKINES AND CARTILAGE DEGRADATION IN KNEE OSTEOARTHRITIS AND IMPROVING QUALITY OF LIFE” (priority 2021, published 2022).

The test system of assay [1] is MMP13. Kind of assay: Study II: level of MMP13. The settings on record: garlic capsules 900 mg daily or glucosamine sulfate 1500 mg daily, 8 weeks; no difference between the groups. The class given is in vivo, human. The protocol: (§1) Garlic group receive 900 mg of garlic capsules daily for 8 weeks. The glucosamine group received 1500 mg glucosamine sulfate daily for 8 weeks. As regard baseline affection of knee in both groups. The garlic group has bilateral knee OA in 100% of patients and significant knee deformity compared to glucosamine group who were having only Bilateral knee affection in 70% of patients.

The test system of assay [2] is glutathione peroxidase. Kind of assay: Study II: level of glutathione peroxidase. The class given is in vivo, human. The note with it: garlic capsules 900 mg daily or glucosamine sulfate 1500 mg daily, 8 weeks; no difference between the groups. The method, then: as §1
The test system of assay [3] is knee osteoarthritis patients. Kind of assay: Study II: garlic versus glucosamine sulphate, clinical manifestations. The class given is in vivo, human. The method, then:
In the second study, I had compared the effect of garlic versus glucosamine on cartilage degeneration in knee osteoarthritis patients. I have chosen glucosamine sulfate to be the comparing drug due to its well known chondroprotective properties and it has been in the market for a while to control the symptoms of knee osteoarthritis.
as §1

For assay [4], the system named is collagenase. Kind of assay: Study II: level of collagenase. The settings on record: garlic capsules 900 mg daily or glucosamine sulfate 1500 mg daily, 8 weeks; no difference between the groups. The class given is in vivo, human. The protocol: as §1
Assay [5] concerns adjuvant arthritis. The note with it: adjuvant arthritis in rats; cited from earlier work.
In assay [6] the test system is glutathione peroxidase. The settings on record: mice, after intake of diet rich in selenium; cited from earlier work.
In assay [7] the test system is rheumatoid arthritis patients. The settings on record: selenium intake; cited from earlier work.
For assay [8], the system named is lupus mice. The settings on record: cited from earlier work.
The test system of assay [9] is mice knee osteoarthritis. The settings on record: after intake of diet rich in selenium; cited from earlier work.

Regarding `N[C@H]1C(O)O[C@H](CO)[C@@H](O)[C@@H]1O.O=S(=O)(O)O` (some centres unmarked) [glucosamine sulfate], the “level of MMP13” value in assay [1] is “significant reduction”. The “level of glutathione peroxidase” value in [2] is reported as “significant reduction”. The “body mass index, mean percent change” value in [3] (end of study, glucosamine group vs garlic group) is on record as “higher mean percent change than garlic group”. In addition, in assay [3] (garlic capsules 900 mg daily or glucosamine sulfate 1500 mg daily, 8 weeks), the pain score entry is listed as “significantly improved in both groups with no difference between groups”. Moreover, the body mass index entry in assay [3] (garlic capsules 900 mg daily or glucosamine sulfate 1500 mg daily, 8 weeks, end of study vs baseline) is on record as “did not significantly change”. The level of collagenase result in [4] was “significant reduction”.

Take `[Se]` [selenium]: the indices of inflammation result in assay [5] and in [8] was “improved indices of inflammation” throughout. In addition, the “expression of glutathione peroxidase in synovium” value in [6] is listed as “increased expression”. In assay [7], the “pain, swollen and tender joints numbers” value is reported as “reduction”. In addition, the mice knee osteoarthritis entry in [9] is listed as “significant reduction”.
